Tests used:
Assay type in all cases: cell-based, human
VEGFR2 = VEGFR2 internalization assay in HUVEC (microscopy, cold trypsin protection); conditions: for effect on VEGFR2 internalization in confluent cells: confluent HUVEC, peptide 200 nM, FIG. 10C
Procedure: (§1) FIG. 3. TCPTP activity controls VEGF-dependent responses in endothelial cells. (A) HUVEC were transfected with the constitutively active TCPTP (TC37) or vector control (pCG), stimulated or not with VEGF, and stained for VEGFR2 (red) and nuclei (blue) after fixation and permeabilization. Arrows indicate VEGFR2 vesicles. (B) HUVEC were treated as in (A) and subjected to trypsin digestion on ice. VEGFR2 protected from trypsin (=internalized pool) was detected by immunoblotting. The intensities of VEGFR2 bands were quantified and are expressed relative to pCG-VEGF control. A representative experiment out of 2 with similar results is shown. (C) HUVEC were transfected with no oligo, siRNA against TCPTP or a control siRNA, and TCPTP expression was measured using immunoblotting. Cells were treated with 80 ng/ml VEGF and proliferation of sparse cells plated on gelatin was assayed after 16 h using BrdU-based assay (mean±SD; n=4-6; *, p<0.05). (D) HUVEC were transfected as in (A) and chemotaxis towards VEGF was measured using a Transwell assay for 4 hours. Cells adhering to the bottom of the filter were fixed and stained with crystal violet. Number of migrated cells was counted (mean±SEM, n=3).
FIG. 7. TCPTP activation through the cytoplasmic domain of α1 integrin inhibits internalization of VEGFR2. […] VEGFR2 staining in the perinuclear area of cells (mean±SEM, n=30) was analyzed from blinded samples using densitometry and scored from 0 to 4 (0=no staining, 4=highest expression). […] VEGFR2 protected from trypsin (=internalized pool) was detected by immunoblotting. The intensity of VEGFR2 bands was quantified using densitometry and expressed as arbitrary units. […]
FIG. 10. […] (B) Confluent HUVEC on gelatin were treated with VEGF in the presence or absence of α1TAT or ScrTAT peptide and the number of live cells was detected using WST-1 reagent (mean±SD, n=3). […] The intensity of VEGFR2 bands was quantitated using densitometry (a representative experiment out of 3 with similar results is shown).
VEGFR2 internalization assay. […] The amount of VEGFR2 in each sample was analyzed using immunoblotting.

HUVEC [1] = experiment: Fibrin-gel in vitro angiogenesis (capillary tube formation) assay; conditions: VEGF, 24 h, FIG. 5A
Procedure: (§2) FIG. 5. Controlled TCPTP activation inhibits VEGF-driven capillary formation, chemokinesis and chemotaxis. (A) HUVEC were cultured in fibrin gels and treated with or without VEGF and TAT peptides (200 nM). After 24 h the formation of capillary tubes was semiquantitatively scored. (B) HUVEC were plated on gelatin in the presence of the peptides (200 nM) or left untreated for 1 h. The cells were stimulated as indicated and migration of individual cells was tracked using time-lapse microscopy. Cumulative migration distance was plotted for randomly picked individual cells. (C) HUVEC were treated with 200 nM peptides and the transmigration assay was performed as in FIG. 3D. (D) HUVEC were transfected with siRNA against TCPTP or a control siRNA, and TCPTP expression was analysed with immunofluorescence. Equal exposures of TCPTP (green) and DAPI (blue) stainings are shown. 48 h post-transfection cells were subjected to transmigration assay as in […].
Tube formation assays. In the fibrin-gel in vitro angiogenesis assay (Chemicon) HUVEC were plated onto a fibrin-gel, and overlaid with a second fibrin-gel after an overnight culture. […] At the 24 h end-point the formation of cellular networks was quantified from three randomly-selected fields from each well. […] In the collagen overlay assay the number of closed polygons formed by capillary tubes was quantified.

HUVEC [2] = experiment: Transwell chemotaxis assay towards VEGF
Procedure: as §1, §2
Chemotaxis assays. HUVEC electroporated with the DNA or siRNA or non-transfected HUVEC were treated with 200 nM α1TAT, ScrTAT or left untreated for 1 h. Transwell filters (8 μm pore size, Costar, Cambridge, Mass.) were coated with gelatin and medium (RPMI, 4 mM L-glutamine, 10% FBS) and VEGF (100 ng/ml) were added to the lower chamber. Cells were harvested from the culture plates, and transferred into the Transwell inserts (4×10^5 cells/well) in RPMI with 0.2% soybean trypsin inhibitor. […] The inserts were fixed in 4% paraformaldehyde, cells stained with 0.5% crystal violet and the number of migrated cells was counted using a microscope.

[3] = HUVEC, 48 h post-transfection, FIG. 5D

Sequence	effect on VEGFR2 internalization in confluent cells (VEGFR2)	internalization of VEGFR2 in HUVEC (VEGFR2; subconfluent HUVEC, peptide 200 nM 1 h, VEGF 100 ng/ml 15 min, FIG. 7)	inhibition of capillary tube formation compared to control peptide treated cells (HUVEC [1])	inhibition of capillary tube formation compared to non-treated cells (HUVEC [1])	effect on VEGF induced chemotaxis of TCPTP siRNA-treated cells (HUVEC [2]; [3])	effect on VEGF-induced migration of scrambled siRNA treated cells (HUVEC [2]; [3])	inhibition of VEGF-induced chemotaxis of HUVEC (HUVEC [2]; peptide 200 nM, Transwell 4 h, FIG. 5C)
YGRKKRRQRRRLKGWRFKLKPKFKEMK (SEQ ID NO 8) [ScrTAT, reference compound]	no effects	–	–	–	–	–	–
YGRKKRRQRRRWKLGFFKRPLKKKMEK (SEQ ID NO 3) [α1TAT]	no effects	specifically inhibited	40%	60%	no inhibitory effects	effectively inhibited	inhibited

— patent publication US20100160228A1, “METHOD FOR INHIBITING OR STIMULATING ANGIOGENESIS IN AN INDIVIDUAL” (VALTION TEKNILLINEN TUTKIMUSKESKUS, priority 2007, published 2010)
